# Test results reported in publication PMC9616412, “Nebulized fusion inhibitory peptide protects cynomolgus macaques from measles virus infection” (Nature Communications, 2022).
# Settings: 74 MBq in 3 ml NaCl 0.9%, mesh nebulizer; Mean +/- SD of four experiments
# Description: Following European recommendations, 2 five-year-old healthy female cynomolgus macaques, 3–4 kg, were housed under conventional conditions in the animal facility. […] Animals were acclimatized to laboratory conditions and trained to breathe an aerosol with a facemask spontaneously. Aerosol generated from 3 ml of 0.9% NaCl mixed with 74 MBq of DTPA radiolabeled with technetium 99 m (^99mTc-DTPA) was administered through a facemask connected to the prototype mesh nebulizers, as used in MeV infection experiments (Fig. 2a). Deposition of aerosol was extrapolated based on the ^99mTc-DTPA signal measured at the end of the nebulization using a gamma camera (Orbiter 75 Ecam, Siemens healthcare, Erlangen, Germany)[69]. The nebulizer charge was measured by counting the radioactivity in the syringe (that contained ^99mTc-DTPA) before and after loading the nebulizers. Immediately after aerosol delivery, the animals were imaged using the gamma camera. The post-anterior static scintigraphy acquisition was performed for 120 s. The amount of ^99mTc-DTPA deposited into airways and stomach and remaining in the nebulizer was determined from the digitalized images taking into account the tissue attenuation coefficients, previously determined by perfusion scintigraphy (intravenous injection of ^99mTc-macroagregates of albumin). The organ body outline was specified using a specific Region Of Interest (ROI), and the lungs were delineated using the perfusion scan ROI. The aerosol dose delivered to different organs of NHPs is reported as a percentage of the nominal dose placed in the nebulizer for that given experiment, taking into account the decay of technetium for all measurements.
smiles,measurement,value
"O=C([O-])CN(CCN(CC(=O)[O-])CC(=O)[O-])CCN(CC(=O)[O-])CC(=O)[O-].[99Tc+4] [99mTC-DTPA, DTPA radiolabeled with technetium 99 m]","Deposition in macaque, Esophagus / trachea",3.4 +/- 4.2%
same,"Deposition in macaque, Lungs",11.4 +/- 3.1%
same,"Deposition in macaque, Stomach",11.9 +/-9.2%
same,"Deposition in macaque, Upper respiratory Tract",29.5 +/- 11.9%
